Test results reported in PubChem BioAssay (NCI).
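Five compound concentrations were applied to cells in 96-well plates for 48 hours; endpoints were derived by simple linear interpolation of the resulting dose-response curve. Here, GI50 denotes the concentration required for 50% inhibition of growth. TGI denotes the concentration required for complete inhibition of growth.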

How the values were obtained:
Test in all cases: NCI anticancer screen, dose series, 48 h
[1] = system: KM12 colon
[2] = system: TK-10 renal
[3] = system: A498 renal
[4] = system: U251 CNS
[5] = system: NCI-H226 lung
[6] = system: SK-MEL-5 melanoma
[7] = system: NCI-H23 lung
[8] = system: SNB-19 CNS
[9] = system: OVCAR-5 ovarian
[10] = system: HCT-116 colon
[11] = system: UO-31 renal
[12] = system: SW-620 colon
[13] = system: OVCAR-4 ovarian
[14] = system: SK-MEL-28 melanoma
[15] = system: MDA-MB-231 breast
[16] = system: BT-549 breast
[17] = system: LOX IMVI melanoma
[18] = system: COLO 205 colon
[19] = system: CCRF-CEM leukemia
[20] = system: T-47D breast
[21] = system: M14 melanoma
[22] = system: NCI-H522 lung
[23] = system: RPMI-8226 leukemia
[24] = system: EKVX NSCLC
[25] = system: RXF 393 renal
[26] = system: SK-MEL-2 melanoma
[27] = system: HOP-62 NSCLC
[28] = system: OVCAR-3 ovarian
[29] = system: SK-OV-3 ovarian
[30] = system: NCI-H460 lung
[31] = system: MDA-MB-435
[32] = system: ACHN renal
[33] = system: PC-3 prostate
[34] = system: MALME-3M melanoma
[35] = system: UACC-257 melanoma
[36] = system: SF-539 CNS
[37] = system: A549 NSCLC
[38] = system: 786-0 renal
[39] = system: HCT-15 colon
[40] = system: CAKI-1 renal
[41] = system: MCF7 breast
[42] = system: SN12C renal
[43] = system: MDA-N
[44] = system: IGROV1 ovarian
[45] = system: HCC-2998 colon
[46] = system: NCI/ADR-RES ovarian
[47] = system: OVCAR-8 ovarian
[48] = system: SF-268 CNS
[49] = system: SF-295 CNS
[50] = system: SNB-75 CNS
[51] = system: MOLT-4 leukemia
[52] = system: K-562 leukemia
[53] = system: UACC-62 melanoma
[54] = system: DU-145 prostate
[55] = system: SR leukemia
[56] = system: HOP-92 NSCLC
[57] = system: HT29 colon
[58] = system: HL-60(TB) leukemia
[59] = system: HS 578T breast

In the case of CC(C)=CC(C)C(C(O)CCC1(c2ccoc2)OCCO1)S(=O)(=O)c1ccccc1 (configuration not stated), the TGI [1] is reported as greater than 100 µM, the TGI [2] is reported as greater than 100 µM and the TGI [3] is reported as greater than 100 µM. For the same molecule, the TGI [4] was greater than 100 µM, the TGI [5] was greater than 100 µM and the TGI [6] was greater than 100 µM. It also gave a TGI [7] greater than 100 µM, a TGI [8] greater than 100 µM and a TGI [9] greater than 100 µM. It also gave a TGI [10] greater than 100 µM, a TGI [11] greater than 100 µM and a TGI [12] greater than 100 µM. It also gave a TGI [13] greater than 100 µM, a TGI [14] greater than 100 µM and a TGI [15] greater than 100 µM. It also gave a TGI [16] greater than 100 µM, a TGI [17] greater than 100 µM and a TGI [18] greater than 100 µM. The TGI [19] was greater than 100 µM, the TGI [20] was greater than 100 µM and the TGI [21] was greater than 100 µM. The TGI [22] was greater than 100 µM, the TGI [23] was greater than 100 µM and the TGI [24] was greater than 100 µM. The TGI [25] was greater than 100 µM, the TGI [26] was greater than 100 µM and the TGI [27] was greater than 100 µM. For the same molecule, the TGI [28] was greater than 100 µM, the TGI [29] was greater than 100 µM and the TGI [30] was greater than 100 µM. The TGI [31] was greater than 100 µM, the TGI [32] was greater than 100 µM and the TGI [33] was greater than 100 µM. For the same molecule, the TGI [34] was greater than 100 µM, the TGI [35] was greater than 100 µM and the TGI [36] was greater than 100 µM. The TGI [37] was greater than 100 µM, the TGI [38] was greater than 100 µM and the TGI [39] was greater than 100 µM. For the same molecule, the TGI [40] was greater than 100 µM, the TGI [41] was greater than 100 µM and the TGI [42] was greater than 100 µM. For the same molecule, the TGI [43] was greater than 100 µM, the TGI [44] was greater than 100 µM and the TGI [45] was greater than 100 µM. It also gave a TGI [46] greater than 100 µM, a TGI [47] greater than 100 µM and a TGI [48] greater than 100 µM. It also gave a TGI [49] greater than 100 µM and a TGI [50] greater than 100 µM.

Molecule c1ccc2[nH]c(SSc3nc4ncncc4[nH]3)nc2c1 has a GI50 [1] of 3.85 µM, a TGI [1] greater than 100 µM and a GI50 [2] of 0.364 µM. For the same molecule, the TGI [2] was greater than 37.3 µM, the GI50 [3] was 8.11 µM and the TGI [3] was greater than 91.1 µM. The GI50 [4] was 8.63 µM, the TGI [4] was greater than 100 µM and the GI50 [5] was 9.52 µM. It also gave a TGI [5] greater than 100 µM, a GI50 [6] of 3.62 µM and a TGI [6] greater than 100 µM. The GI50 [7] was 2.9 µM, the TGI [7] was greater than 100 µM and the GI50 [8] was 64.5 µM. The TGI [8] was greater than 100 µM, the GI50 [9] was 13 µM and the TGI [9] was greater than 100 µM. It also gave a GI50 [51] of 0.486 µM, a TGI [51] greater than 100 µM and a GI50 [10] of 0.913 µM. It also gave a TGI [10] greater than 100 µM, a GI50 [11] of 0.559 µM and a TGI [11] greater than 30.9 µM. It also gave a GI50 [12] of 3.24 µM, a TGI [12] greater than 100 µM and a GI50 [52] of 0.278 µM. The TGI [52] was greater than 100 µM, the GI50 [13] was 3.64 µM and the TGI [13] was greater than 100 µM. It also gave a GI50 [53] of 0.729 µM, a TGI [53] greater than 100 µM and a GI50 [14] of 27.8 µM. For the same molecule, the TGI [14] was greater than 100 µM, the GI50 [15] was 2.9 µM and the TGI [15] was greater than 100 µM. It also gave a GI50 [16] of 2.89 µM, a TGI [16] greater than 100 µM and a GI50 [17] of 0.279 µM. It also gave a TGI [17] greater than 44.6 µM, a GI50 [18] of 2.59 µM and a TGI [18] of 10.2 µM. It also gave a GI50 [19] of 1.37 µM, a TGI [19] greater than 100 µM and a GI50 [54] of 0.674 µM. The TGI [54] was greater than 100 µM, the GI50 [20] was 0.489 µM and the TGI [20] was 98.9 µM. It also gave a GI50 [21] of 0.347 µM, a TGI [21] of 82.1 µM and a GI50 [22] of 0.383 µM. It also gave a GI50 [23] of 0.709 µM, a TGI [23] greater than 100 µM and a GI50 [55] of 0.551 µM. For the same molecule, the TGI [55] was greater than 100 µM, the GI50 [24] was 25.9 µM and the TGI [24] was greater than 100 µM. For the same molecule, the GI50 [25] was 32.1 µM, the TGI [25] was greater than 100 µM and the GI50 [26] was 2.72 µM. The TGI [26] was greater than 100 µM, the GI50 [27] was 0.427 µM and the TGI [27] was greater than 100 µM. The GI50 [28] was 0.579 µM, the TGI [28] was greater than 100 µM and the GI50 [29] was 0.37 µM. The TGI [29] was 34.2 µM, the GI50 [30] was 4.48 µM and the TGI [30] was greater than 100 µM. The GI50 [31] was 0.446 µM, the TGI [31] was greater than 100 µM and the GI50 [32] was 4.14 µM. It also gave a TGI [32] greater than 100 µM, a GI50 [56] of 0.375 µM and a TGI [56] greater than 90.8 µM. The GI50 [33] was 5.37 µM, the TGI [33] was greater than 100 µM and the GI50 [34] was 2.01 µM. The TGI [34] was greater than 66.1 µM, the GI50 [35] was 4.97 µM and the TGI [35] was greater than 75.2 µM. The GI50 [57] was 2.58 µM, the TGI [57] was greater than 100 µM and the GI50 [36] was 0.989 µM. It also gave a TGI [36] greater than 100 µM, a GI50 [37] of 19.4 µM and a TGI [37] greater than 100 µM. The GI50 [58] was 0.71 µM, the TGI [58] was greater than 100 µM and the GI50 [38] was 0.463 µM. It also gave a TGI [38] greater than 100 µM, a GI50 [39] of 3.25 µM and a TGI [39] greater than 100 µM. For the same molecule, the GI50 [40] was 0.212 µM, the TGI [40] was 3.77 µM and the GI50 [41] was 0.295 µM. For the same molecule, the GI50 [42] was 5.38 µM, the TGI [42] was greater than 100 µM and the GI50 [44] was 4.48 µM. It also gave a TGI [44] of 96.2 µM, a GI50 [45] of 1.9 µM and a TGI [45] greater than 100 µM. It also gave a GI50 [59] of 8.92 µM, a TGI [59] greater than 100 µM and a GI50 [46] of 1.74 µM. For the same molecule, the TGI [46] was greater than 100 µM, the GI50 [47] was 3.32 µM and the TGI [47] was greater than 100 µM. The GI50 [48] was 4.13 µM, the TGI [48] was greater than 100 µM and the GI50 [49] was 0.457 µM. The GI50 [50] was 13.1 µM and the TGI [50] was greater than 100 µM.

C=CCn1c(-c2ccccc2)cs/c1=N\C(P(=O)(O)O)P(=O)(O)O showed a TGI [1] greater than 100 µM, a TGI [2] greater than 100 µM and a TGI [5] greater than 100 µM. The TGI [6] was greater than 100 µM, the TGI [7] was greater than 100 µM and the TGI [8] was greater than 100 µM. It also gave a TGI [9] greater than 100 µM, a TGI [10] greater than 100 µM and a TGI [11] greater than 100 µM. The TGI [53] was greater than 100 µM, the TGI [15] was greater than 100 µM and the TGI [16] was greater than 100 µM. It also gave a TGI [17] greater than 100 µM, a TGI [18] greater than 100 µM and a TGI [54] greater than 100 µM. The TGI [21] was greater than 100 µM, the TGI [22] was greater than 100 µM and the TGI [24] was greater than 100 µM. For the same molecule, the TGI [25] was greater than 100 µM, the TGI [27] was greater than 100 µM and the TGI [28] was greater than 100 µM. The TGI [29] was greater than 100 µM, the TGI [30] was greater than 100 µM and the TGI [32] was greater than 100 µM. The TGI [33] was greater than 100 µM, the TGI [34] was greater than 100 µM and the TGI [35] was greater than 100 µM. The TGI [36] was greater than 100 µM, the TGI [37] was greater than 100 µM and the TGI [38] was greater than 100 µM. For the same molecule, the TGI [39] was greater than 100 µM, the TGI [40] was greater than 100 µM and the TGI [41] was greater than 100 µM. For the same molecule, the TGI [43] was greater than 100 µM, the TGI [44] was greater than 100 µM and the TGI [45] was greater than 100 µM. The TGI [46] was greater than 100 µM, the TGI [48] was greater than 100 µM and the TGI [49] was greater than 100 µM.
